Five compounds from US7232912B2, “Indazole compounds, pharmaceutical compositions, and methods for mediating or inhibiting cell proliferation” (Agouron Pharmaceuticals, Inc., priority 2000, dated 2007) can be followed below.

In one experiment the target is T1, human CHK1 (Homo sapiens, UniProt O14757).
T1 construct: C-terminally His-tagged full-length human CHK1 (FL-CHK1) was expressed using the baculovirus/insect cell system; made in house; host or cells: baculovirus/insect cells
T1 sequence (O14757 1-476): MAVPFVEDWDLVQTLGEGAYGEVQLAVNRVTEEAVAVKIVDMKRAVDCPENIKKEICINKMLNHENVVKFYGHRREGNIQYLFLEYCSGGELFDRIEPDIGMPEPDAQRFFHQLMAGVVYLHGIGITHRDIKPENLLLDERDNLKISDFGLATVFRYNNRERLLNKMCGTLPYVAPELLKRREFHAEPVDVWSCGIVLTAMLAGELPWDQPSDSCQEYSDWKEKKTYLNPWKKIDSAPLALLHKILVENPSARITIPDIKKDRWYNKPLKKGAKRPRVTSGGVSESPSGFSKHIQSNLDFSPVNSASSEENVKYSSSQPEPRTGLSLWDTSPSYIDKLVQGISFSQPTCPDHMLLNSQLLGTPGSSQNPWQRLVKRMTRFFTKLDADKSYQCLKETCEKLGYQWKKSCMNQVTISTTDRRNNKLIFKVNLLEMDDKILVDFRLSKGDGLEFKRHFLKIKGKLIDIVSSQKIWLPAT
Kind of experiment: CHK1 Assay (coupled spectrophotometric). The experiment is classed as biochemical. The text has this: C-terminally His-tagged full-length human CHK1 (FL-CHK1) was expressed using the baculovirus/insect cell system. It contains 6 histidine residues (6×His-tag) at the C-terminus of the 476 amino acid human CHK1. The protein was purified by conventional chromatographic techniques.
The production of ADP from ATP that accompanies phosphoryl transfer to the synthetic substrate peptide Syntide-2 ([…]) was coupled to oxidation of NADH using phosphoenolpyruvate (PEP) through the actions of pyruvate kinase (PK) and lactic dehydrogenase (LDH). The oxidation of NADH was monitored by following the decrease of absorbance at 340 nm (ε340=6.22 cm^−1 mM^−1) using a HP8452 spectrophotometer. Typical reaction solutions contained: […]; 0.15 mM NADH; 28 units of LDH/ml; 16 units of PK/ml; 3 mM DTT; 0.125 mM Syntide-2; 0.15 mM ATP; 25 mM MgCl2 in 50 mM TRIS, pH 7.5; and 400 mM NaCl. Assays were initiated with 10 nM of FL-CHK1. Ki values were determined by measuring initial enzyme activity in the presence of varying concentrations of test compounds. The data were analyzed using Enzyme Kinetic and Kaleidagraph software.

The test system of another experiment is FAK. Put plainly: Coupled Spectrophotometric (FAK) Assay. The experiment is classed as biochemical. How it is done: Coupled Spectrophotometric (FAK) Assay
Tyrosine kinase assays were monitored using a Beckman DU 650 Spectrophotometer. Production of ADP was coupled to oxidation of NADH using phosphoenolpyruvate (PEP) through the actions of pyruvate kinase (PK) and lactic dehydrogenase (LDH). The oxidation of NADH was monitored by following the decrease in absorbance at 340 nm (ε340=6.22 cm^−1 mM^−1). Typical reaction solutions contained: 1 mM PEP, 250 μM NADH, 50 units of LDH/mL, 20 units of PK/mL, 5 mM DTT, in 200 mM Hepes, pH 7.5 and varying concentrations of poly(E4Y1), ATP and MgCl2. Assays were initiated with 40 nM of […].

The structures appear in SMILES notation.

By inhibition is commonly meant the share of the control response that was lost under treatment. Consider `Cc1c(O)cccc1-c1ccc2[nH]nc(-c3nc4ccccc4[nH]3)c2c1` [10′, 3-[3-(1H-Benzoimidazol-2-yl)-1H-indazol-5-yl]-2-methyl-phenol], for which the inhibition at 10 µM at human CHK1 (read-out: CHK1 % inhibition @ 10 μM, at 10 μM) was found to be 5%.
For `Cc1c(O)cccc1-c1ccc2[nH]nc(/C=C/c3ccccc3)c2c1` [15′, 2-Methyl-3-[3-((E)-styryl)-1H-indazol-5-yl]-phenol], the inhibition at 1 µM on human CHK1 (read-out: CHK1 % inhibition at 1 μM) is 16%.
Turning to `Fc1ccccc1-c1ccc2[nH]nc(-c3nc4ccccc4[nH]3)c2c1` [Example 6, 3-(1H-Benzoimidazol-2-yl)-5-(2-fluorophenyl)-1H-Indazole], 20 µM produced 80% inhibition at human CHK1.
As a reminder, the Ki is a dissociation constant, usually derived from enzyme kinetics or from competition with a known ligand. Turning to `C(=C\c1n[nH]c2ccc(-c3cncc4ccccc34)cc12)/c1ccccc1` [Example 16], in the experiment with FAK, the “FAK % Inhibition at 1 μM” value amounted to 47%. This compound had an inhibition constant (Ki) on human CHK1 of 81 µM.
The compound `c1ccc2[nH]c(-c3n[nH]c4ccc(-c5cccc6[nH]ccc56)cc34)nc2c1` [Example 48, 3-(1H-Benzoimidazol-2-yl)-5-(1H-indol-4-yl)-1H-indazole] returned a Ki on human CHK1 of 7.82 µM.
